# Where two headings read alike, the source gives them in different places.
# What was measured:
# Non-infected HFF = assay: TMRE uptake assay (mitochondrial membrane potential), non-infected HFF; assay type: cell-based, human; settings: 0.5 μM, 3.5 h
# Experimental: (§1) 5 × 10^5 HFF were seeded into T25 culture flasks in DMEM complete medium and maintained in culture for 72 h to reach ⁓80% confluency. HFF monolayers were left either non-infected or were infected with 2 × 10^5 T. gondii Me49 tachyzoites. After another 48 h, the medium was removed from infected and non-infected T25 flasks and was replaced either by medium containing 0.5 μM RU-SDX, or in the case of non-treated controls, medium containing 0.05% DMSO. As positive controls, the two mitochondrial uncouplers FCCP and CCCP were applied at a concentration of 80 and 50 μM, respectively. PYR was applied at 0.5 μM as a control drug not affecting the MMP, and RU-adenine, used as a conjugate shown earlier to impact on the mitochondrial ultrastructure in T. gondii ([Anghel et al., 2021]; [Desiatkina et al., 2022b]), was also tested at 0.5 μM ([Anghel et al., 2021]; [Desiatkina et al., 2022b]). […] Fluorescence was measured using a Hidex Sense microplate reader instrument ([…]) with the excitation wavelength 544/20 nm and emitted light collected at 590/20 nm. Value from wells belonging to the same experimental condition were summed and the mean TMRE uptake in each condition was calculated from three biological replicates.
# T. gondii-infected HFF = assay: TMRE uptake assay (mitochondrial membrane potential), T. gondii-infected HFF; assay type: cell-based, Toxoplasma gondii Me49 in human HFF; settings: 0.5 μM, 3.5 h
# Experimental: as §1
# [1] = tested on: T. gondii β-gal tachyzoites; assay: T. gondii β-Gal tachyzoite proliferation in HFF monolayers (β-galactosidase fluorometric assay); assay type: cell-based, Toxoplasma gondii
# Experimental: Effects of drugs on the proliferative capacity of T. gondii tachyzoites were investigated using a transgenic T. gondii RH strain constitutively expressing β-Galactosidase (T. gondii β-Gal ([Dc et al., 1997]);). Assays were carried out in 96 well plates in the presence or absence of the different compounds. For the quantification of β-Galactosidase activity, a fluorometric assay was applied as previously described ([Desiatkina et al., 2021]; [Păunescu et al., 2021]).
# HFF = HFF host cell cytotoxicity, Alamar blue viability assay; assay type: cell-based, human; settings: 72 h, uninfected HFF
# Experimental: (§2) To determine cytotoxicity of compounds on host cells, HFF were grown to confluency in 96 well plates and were treated with different concentrations of the drugs solubilized in medium during 72 h at 37 °C/5% CO2, or were treated with the corresponding concentration of DMSO only ([Desiatkina et al., 2020]; [Holzer et al., 2023]; [Păunescu et al., 2021]). The Alamar blue viability assay was used as previously described ([Desiatkina et al., 2020], [2021], [2022a], [2022b]; [Holzer et al., 2023]; [Păunescu et al., 2021]). In short, resazurin was added to each well at 0.01 mg/ml, and subsequently fluorescence of the produced resorufin was measured at excitation wavelength 544/20 nm and emission wavelength 590/20 nm using a Hidex Sense microplate reader (Hidex, Turku, Finland).
# [2] = tested on: T. gondii β-gal tachyzoites; settings: 2021, cited from earlier work
# [3] = HFF host cell cytotoxicity, Alamar blue viability assay; assay type: cell-based, human; settings: human, uninfected HFF cells (confluent monolayer), read-out: viability (% of control ± SD)
# Experimental: as §2
smiles,measurement,setting,value
"CCc1nc(N)nc(N)c1-c1ccc(Cl)cc1 [PYR, Pyrimethamine, reference compound]",TMRE fluorescence intensity / TMRE uptake (percentage of non-treated control = 100%),Non-infected HFF,99%
same,TMRE fluorescence intensity / TMRE uptake (percentage of non-treated control = 100%),T. gondii-infected HFF,106%
CC(C)(C)c1ccc(C[S-])cc1.CC(C)(C)c1ccc(C[S-])cc1.Cc1ccc(C(C)C)cc1.Cc1ccc(C(C)C)cc1.O=C(O)Cc1ccc([S-])cc1.[Cl-].[Ru+2].[Ru+2] [RU],proliferation (% of control ± SD),[1]; 1.25 μM,^∗64 ± 10%
same,proliferation (% of control ± SD),[1]; 2.5 μM,^∗∗∗12 ± 2%
same,proliferation (% of control ± SD),[1]; 5 μM,^∗∗∗0 ± 0%
same,viability (% of control ± SD),HFF; 2.5 μM,100 ± 10%
same,viability (% of control ± SD),HFF; 5 μM,70 ± 10%
same,viability (% of control ± SD),HFF; 10 μM,0 ± 0%
same,proliferation (% of control ± SD),"[2]; 1 μM, ref Păunescu et al.",^a110 ± 2%
same,proliferation (% of control ± SD),"[2]; 1.1 μM, ref Păunescu et al.",^a114 ± 2%
"COc1ncnc(NS(=O)(=O)c2ccc(N)cc2)c1OC [SDX, Sulfadoxine]",activity at 1.25 µM,"[1]; Toxoplasma gondii, 1.25 μM, read-out: proliferation (% of control ± SD)",127%
same,activity at 2.5 µM,"[1]; Toxoplasma gondii, 2.5 μM, read-out: proliferation (% of control ± SD)",113%
same,activity at 5 µM,"[1]; Toxoplasma gondii, 5 μM, read-out: proliferation (% of control ± SD)",112%
same,"viability at 72 h, 2.5 µM",[3]; 2.5 μM,118 ± 6%
same,"viability at 72 h, 5 µM",[3]; 5 μM,106 ± 9%
same,"viability at 72 h, 10 µM",[3]; 10 μM,93 ± 5%
same,proliferation (% of control ± SD),"[2]; 1 μM, ref Desiatkina et al.",^b83 ± 2%
same,proliferation (% of control ± SD),"[2]; 1.1 μM, ref Desiatkina et al.","^b^, ^∗111 ± 3%"

# From publication PMC11087982, “In vitro and in vivo activities of a trithiolato-diRuthenium complex conjugated with sulfadoxine against the apicomplexan parasite Toxoplasma gondii” (International Journal for Parasitology: Drugs and Drug …, 2024)
